# Experimental data as given in patent US6753005B1, “Method for tissue perfusion” (Direct Therapeutics, Inc., priority 1997, dated 2004).
# Entries after “also recorded” stand apart in the source; their conditions may differ.
# System: normal feline brain
# Assay: Normal feline brain model, direct intra-tissue injection
# Details: for Gross Findings: lesion size: 2 weeks
# Method: Mongrel cats weighing 2.5-3.0 kg were obtained from Liberty Research, Waverly, N.Y. Animals were anaesthetized using intramuscular acepromazine at 0.1 mg/kg, followed by 0-30 mg total dose of ketamine. A small incision was made over and extending posteriorly from the coronal suture. A 3 mm burr hole was made 0.75 cm posterior to the coronal suture and 0.75 cm lateral to the midline. Using a stereotactic frame, solutions were injected at a depth of 0.75 cm in the area of the sensory cortex. The burr hole was closed with bone wax and the skin closed with a skin clip. Doses of carmustine between 5 and 20 mg were administered in dehydrated alcohol volumes of between 0.05-0.4 ml. Two weeks post injection animals were sacrificed, the brain removed in toto and fixed in 10% buffered formalin and the brain examined grossly for lesions at the site of injection. Solutions injected consisted of an ethanol solvent vehicle alone, or containing varying concentrations of carmustine.
# [1] = 0.05 ml ethanol + 5 mg carmustine (100 mg/ml), 1 cat
# [2] = 0.05 ml ethanol + 20 mg carmustine (400 mg/ml), 1 cat
# [3] = 0.1 ml ethanol + 10 mg carmustine (100 mg/ml), 1 cat
# [4] = 0.2 ml ethanol + 5 mg carmustine (25 mg/ml), 1 cat
# [5] = 0.4 ml ethanol + 5 mg carmustine (12.5 mg/ml), 1 cat
compound,measurement,setting,value
"O=NN(CCCl)C(=O)NCCCl [Carmustine, carmustine]",Clinical Signs,[1],NPND
same,Gross Findings: lesion size,[1],2-3 mm
same,Survival,"0.05 ml ethanol + 5 mg carmustine (100 mg/ml), 1 cat, sacrifice 2 weeks",Term
same,Clinical Signs,"0.05 ml ethanol + 10 mg carmustine (200 mg/ml), 1 cat","Circles to left, otherwise"
same,Survival,"0.05 ml ethanol + 10 mg carmustine (200 mg/ml), 1 cat, sacrifice 2 weeks",Term
same,Clinical Signs,[2],Died
same,Gross Findings: lesion size (diameter),[2],1-1.5 cm
same,Survival,[2],3 days
same,volume of lesion,0.05 ml ethanol containing 20 mg (400 mg/ml) carmustine,1.0 to 1.77 mL
same,volume of lesions,0.05 ml ethanol containing 10 and 20 mg (200 and 400 mg/ml) carmustine,1.0 to 1.77 mL
same,Clinical Signs,[3],NPND
same,Gross Findings: lesion size,[3],4-5 mm
same,Survival,"0.1 ml ethanol + 10 mg carmustine (100 mg/ml), 1 cat, sacrifice 2 weeks",Term
same,Clinical Signs,[4],NPND
same,Gross Findings: lesion size,[4],4 mm
same,Survival,"0.2 ml ethanol + 5 mg carmustine (25 mg/ml), 1 cat, sacrifice 2 weeks",Term
same,Clinical Signs,[5],NPND
same,Gross Findings: lesion size,[5],2-3 mm
same,Survival,"0.4 ml ethanol + 5 mg carmustine (12.5 mg/ml), 1 cat, sacrifice 2 weeks",Term
same,toxic effects on the tissue,0.4 ml ethanol containing 5 mg (12.5 mg/ml) carmustine,no toxic effects
same,effect on post-mitotic (non-dividing) cells of normal brain,"50 μl ethanol, carmustine 200 or 400 mg/ml",destruction of a relatively large volume of tissue; also recorded: novel activity of carmustine against non-dividing cells
same,toxic effects in normal brain tissue,solutions containing carmustine up to 100 mg/ml,no toxic effects
